One test relates to HL-60 cells. Kind of test: Differentiation helper inducer activity (reductive index, retinoic acid-induced HL-60 differentiation, NBT+). In kind it is cell-based. The settings on record: for Concentration to reach 0.5 reductive index: methyltransferase inhibitors as differentiation helper inducers, HL-60, retinoic acid, 96 hours; for Concentration to reach 0.5 reductive index (effective dose of differentiation inducer reduced to 50%): MAT inhibitors as differentiation helper inducers.

Another test concerns HL-60 cancer cells. Kind of test: Completeness of retinoic acid-induced differentiation with helper inducers (NBT test). In kind it is cell-based. The note with it: 96 hours, FIG. 5. On the procedure:
Differentiation helper inducers can not only decrease the effective amount of the differentiation inducer, but also promote the completeness of differentiation. HL-60 cancer cells were subcultured at an initial cell density of 1.5×10^5 cells/ml. The culture flasks were grouped into three sets; each set includes 4-5 flasks. One flask was used as the blank without additives. One set was added 0.025-0.15 μM retinoic acid as the control; the other two sets were added 4 μM of uroerythrin or vitamin B2. NBT test was conducted as described in Example 4 after incubation for 96 hours. The values thus obtained were subtracted with the value obtained by the blank without additives.

In test [1] the test system is HBL-100 breast cancer cells. Kind of test: Inhibition of colony formation of HBL-100 breast cancer cells. In kind it is cell-based, human. The protocol: The activity of cancer cell colony formation is determined by using HBL-100 breast cancer cells according to the method described in Example 4, which is expressed by the percentage of the activity of cancer cell colony formation in a control group in which none of the chemicals is added. A group in which thymidine is used alone, a group in which CDA-II is used alone, and a group in which thymidine and CDA-II are used together (1:1) were tested. […] The synergistic effect is remarkable.
The activity of cancer cell colony formation is determined by using HBL-100 breast cancer cells according to the method described in Example 4. Each culture flask contains 5 ml medium, which contains 3000 HBL-100 cells and different amounts of CDA-11, vitamin C or vitamin B17. After incubation at 37° C. for 5 days, the cells were stained with Giemsa, and numbers of colonies with more than 8 cells were counted under a microscope.
Another indication of the anticancer activity of CDA-II is the inhibition of colony formation of HBL-100 breast cancer cell. At the beginning, the breast cancer cells growing at the exponential phase were washed with HBS solution, then about 2 ml 0.05% trypsin-0.53 mM EDTA was added, and the solution was incubated at 37° C. for 10 minutes. Thereafter, the cell density was measured, then an aliquot was taken and diluted to 3×10^3 cells/ml. 0.5 ml of the diluted solution was added into 4.5 ml culture medium with or without CDA-II and incubated at 37° C. Five days later, the medium was discarded, and the cells were washed with isotonic saline, then methanol was added to fix cells for 15 minutes. The fixed cells were stained for 30 minutes with Giemsa staining solution diluted 20 fold. After the staining solution was discarded, the cells were washed with water and dried. The colony number above 8 cells was counted under a microscope to determine the anticancer activity of CDA-II (the result is shown in table 1).
The experiment was carried out according to FIG. 6. HBL-100 cells were cultured with different dosages of CDA-II, vitamin C and vitamin B17 alone, and with the combination of CDA-II and vitamin C, or the combination of CDA-II and vitamin B17.

The mark [2] stands for this setting: retinoic acid combined with 4 μM helper inducer.

Protocol for HL-60 cells: The differentiation of cancer cells was measured by using leukemic cancer cells HL-60 to quantitate the NBT+ cells. First, HL-60 cells were subcultured at an initial cell density 1.5×10^5 cells/ml, 10 ml/flask. A set of four flasks were used as the control, wherein only retinoic acid was added as differentiation inducer, the amount of which was adjusted to induce NBT+ cells to the range of 15% to 60%. Another flask was used as the blank which was added the solution only. The total amount of methanol in which retinoic acid was dissolved should not exceed 2%, so as not to affect the differentiation of cancer cells. Each of other sets also comprises four flasks, which were added smaller amounts of retinoic acid, and a blank flask with only the solvent. Different amounts of the differentiation helper inducers were added in each set. The cell numbers in every flask were counted after incubation for 96 hours, and NBT was assayed according to the method of Example 4. Generally, the natural differentiation of the HL-60 cells, i.e. without the action of any of the additives, is usually lower than 4%. In the sets containing only differentiation helper inducer, the differentiation of cells is less than 10%. The value of NBT+ in each flask is required to subtract the value of the blank control.
The value of ED50, i.e., the amount of the differentiation inducer required when NBT+ is 50%, can be obtained by plotting the amount against NBT+. The reductive index can be calculated from the ED50 value. Reductive index=ED50 in the presence of differentiation helper inducer/ED50 with cell differentiation inducer only. The lower the reductive index, the higher the activity of the differentiation helper induced.

Take `CC[n+]1c(-c2ccccc2)c2cc(N)ccc2c2ccc(N)cc21` [ethidium bromide]: in the test on HL-60 cells, the “Concentration to reach 0.5 reductive index” value is 0.95 µM.
Take `O=C(O)CNC(=O)c1ccccc1` [hippuric acid]: in the test with HL-60 cells, the “Concentration to reach 0.5 reductive index (effective dose of differentiation inducer reduced to 50%)” value turned out to be 8 mM.
Regarding `CCN(CC)CCNc1ccc(CO)c2sc3ccccc3c(=O)c12` [hycanthone], the “Concentration to reach 0.5 reductive index” value in the test with HL-60 cells is 2 µM.
Turning to `O=C(O)Cc1ccccc1` [phenylacetic acid], the “Concentration to reach 0.5 reductive index (effective dose of differentiation inducer reduced to 50%)” value in the test with HL-60 cells is 4 mM.
As for `CC1=C(/C=C/C(C)=C/C=C/C(C)=C/C(=O)O)C(C)(C)CCC1` [retinoic acid], the “Extent of differentiation (NBT+)” value in the test on HL-60 cancer cells (differentiation inducer (0.025-0.15 μM retinoic acid) used alone) was “about 85%”.
`C=CC1=C(C)C(=O)N=C1C=c1[nH]c(=Cc2[nH]c(O)c(C)c2CCC(=O)O)c(CCC(=O)O)c1C` [uroerythrin]: the “Concentration to reach 0.5 reductive index” value in the test with HL-60 cells came out at 1.8 µM. Also, the “Extent of differentiation (NBT+)” value in the test on HL-60 cancer cells (setting [2]) is reported as 100%.
For `Cc1cc2nc3c(=O)[nH]c(=O)nc-3n(C[C@H](O)[C@H](O)[C@H](O)CO)c2cc1C` [vitamin B2, riboflavin], in that order: 3.0 µM and 100%.
As to `N#CC(O[C@@H]1O[C@H](CO[C@@H]2O[C@H](CO)[C@@H](O)[C@H](O)[C@H]2O)[C@@H](O)[C@H](O)[C@H]1O)c1ccccc1` (stereo partly shown) [vitamin B17], the “IC50, inhibition of the formation of colonies of HBL-100 human breast cancer cells” value in test [1] (5 days, FIG. 7) was determined as 130 µg/mL. In addition, the “Colony formation of HBL-100 cells: inhibition percentage, administered alone” value in test [1] (vitamin B17 0.05 mg/ml alone) was 20%.
The term IC50 denotes the concentration that inhibits the measured activity by half. The inhibition is the change of the read-out against control, counted positive when it falls. With `O=C1O[C@H]([C@@H](O)CO)C(O)=C1O` [vitamin C], the 50% inhibitory concentration (IC50) in test [1] (Homo sapiens, HBL-100, 120 h, 5 days, FIG. 7, read-out: IC50, inhibition of the formation of colonies of HBL-100 human breast cancer cells) was 530 µg/mL. Also, the inhibition at 200 µg/mL in test [1] (Homo sapiens, HBL-100, vitamin C 0.2 mg/ml alone, read-out: Colony formation of HBL-100 cells: inhibition percentage, administered alone) came to 12%.

Source of the values: patent US7232578B2, “Pharmaceutical composition inducing cancer cell differentiation and the use for treatment and prevention of cancer thereof” (Bio Grand Co., Ltd., priority 2005, dated 2007).
